{"source": "patent US6911470B1", "about": "“Polyoxometalate compounds as antiviral agents” (priority 1988, dated 2005)", "key": {"[1]": {"settings": "background statement; AZT in a clinical setting; cited from earlier work"}, "[2]": {"tested_on": "Friend retrovirus, strain FV-PLS", "assay": "Splenomegaly model in BALB/c mice infected with Friend virus", "settings": "for % Effectiveness / Mean Spleen wt. (mg) ± SD: sacrifice day 16", "method": "Tests were conducted in whole infected mice using one of the compounds to the present invention. The methodology of this test is the same as was used in Ruprecht et al, Nature 323, 467-469, except that Friend virus was used instead of Rauscher virus.\nComparison of Toxicity of Polyoxometalate Compounds Mice. Female BALB/c mice (3 to 4 weeks old), obtained from Charles River Laboratories (Raleigh, N.C.), were acclimatized in the animal facility for two weeks. They-were then inoculated (200 μl) into the peritoneal cavity with Friend retrovirus, strain FV-PLS. A virus inoculum [about 100 focus forming units (FFU)/mouse] was selected which caused a splenomegaly rate of 100% on day 16 after virus inoculation in untreated animals. The virus titer of the inoculum was determined by a UV/XC assay.\nIn vivo antiviral experiments. Mice were inoculated intraperitoneally with virus at noon and then randomized into ten animals per treatment group. Five hours after virus inoculation, the mice were treated intraperitoneally with the compounds. Treatment was continued daily for 6 or 10 days. On day 16 after virus inoculation, the animals were sacrificed by carbon dioxide inhalation and their spleens removed under aseptic conditions and weighed."}, "SIV": {"tested_on": "SIV", "assay": "Activity against SIV", "format": "cell-based, simian immunodeficiency virus", "settings": "Table 2"}, "[3]": {"tested_on": "human granulocyte-macrophage precursor cells", "format": "cell-based", "source_text": "Preparation of Cells. Human bone marrow cells were collected by aspiration from the posterior iliac crest of normal healthy volunteers, treated with heparin and the mononuclear population separated by Ficoll-Hypaque gradient centrifugation. Cells were washed twice in Hanks balanced salt solution, counted with a hemacytometer and their viability was >98% as assessed by trypan blue exclusion.\nAssay of Colony-Forming Unit Granulocyte-Macrophage (CFU-GM) for Drug Cytotoxicity. The culture assay for CFU-GM was performed using a bilayer soft-agar method as recently described (Sommadossi et al, Antimicrob. Agents Chemother. 31, 452-454, 1987). McCoy 5A nutrient medium supplemented with 15% dialyzed fetal bovine serum (heat inactivated at 56° C. for 30 min.) (Gibco Laboratories, Grand Island, N.Y.) was used in all experiments. This medium was completely lacking in thymidine and uridine. Cells were cloned in 0.3% agar in the presence of increasing concentrations of the modulating compound or in medium alone (control). After 14 days of incubation at 37° C. in a humidified atmosphere of 5% CO2 in air, colonies (≧50 cells) were counted using an inverted microscope.\nThe toxicities of a variety of polyoxometalates with respect to human bone marrow cells (human granulocyte-macrophage precursor cells) were assessed."}, "[4]": {"assay": "Comparison of toxicity of polyoxometalate compounds in mice (mortality, haematology)", "format": "in vivo", "design": "MCV (mean corpuscular volume): unit not given here", "settings": "BID × 6, 60 mkd i.p.", "source_text": "Comparison of Toxicity of Polyoxometalate Compounds Mice.\nIn vivo antiviral experiments. […] Treatment was continued daily for 6 or 10 days."}}, "note": "pEC50: −log10 of the molar value. Where two headings read alike, the source gives them in different places."}
{"molecule": "Cc1cn([C@H]2C[C@H](N=[N+]=[N-])[C@@H](CO)O2)c(=O)[nH]c1=O", "note": "[Formula 22, 3′-azido-3′-deoxythymidine, reference compound]", "values": [{"measurement": "adverse effect", "setting": "[1]", "value": "reversible bone marrow toxicity"}, {"measurement": "% Mortality", "setting": "[2]; 30 mkd IP QD × 10", "value": 0, "unit": "%"}, {"measurement": "% Effectiveness", "setting": "[2]; 30 mkd IP QD × 10", "value": 38.4, "unit": "%"}, {"measurement": "Mean Spleen wt. (mg) ± SD", "setting": "[2]; 30 mkd IP QD × 10", "value": "1,249 ± 1,152 mg"}, {"measurement": "% Mortality", "setting": "[2]; 60 mkd IP QD × 10", "value": 0, "unit": "%"}, {"measurement": "% Effectiveness", "setting": "[2]; 60 mkd IP QD × 10", "value": 51.3, "unit": "%"}, {"measurement": "Mean Spleen wt. (mg) ± SD", "setting": "[2]; 60 mkd IP QD × 10", "value": "988 ± 836", "unit": "mg"}, {"measurement": "pEC50", "setting": "SIV", "value": 8.54}, {"measurement": "toxicity to human bone marrow cells (order of toxicity, FIG. 6)", "setting": "[3]; human, 14 days", "value": "BT and NH4ST<AZT and ST<HPA-23"}]}
{"molecule": "(ArgH^+)m(H^+)4-mST, where m=1-4 [(ARGH^+)nH^+(4−n)ST]", "values": [{"measurement": "Hct (hematocrit)", "setting": "[4]; bled on day 17", "value": "18.16 ± 6.02", "unit": "%"}, {"measurement": "Hgb (hemaglobin)", "setting": "[4]; bled on day 17", "value": "7.08 ± 2.51", "unit": "g/dL"}, {"measurement": "MCH", "setting": "[4]; bled on day 17", "value": "17.8 ± 1.6", "unit": "pg"}, {"measurement": "MCHC (mean corpuscular hemoglobin concentration)", "setting": "[4]; bled on day 17", "value": "38.62 ± 3.49", "unit": "g/dL"}, {"measurement": "MCV (mean corpuscular volume)", "setting": "[4]; bled on day 17", "value": "46.08 ± 0.45"}, {"measurement": "PLT (platelates) (×1000)", "setting": "[4]; bled on day 17", "value": "325 ×1000"}, {"measurement": "RBC (×1000000)", "setting": "[4]; bled on day 17", "value": "3.95 ± 1.31 ×1000000"}, {"measurement": "RDW (width of red cells)", "setting": "[4]; bled on day 17", "value": "36.68 ± 1.31", "unit": "%"}, {"measurement": "WBC (×1000)", "setting": "[4]; bled on day 17", "value": "6.28 ± 2.19 ×1000"}, {"measurement": "Mortality", "setting": "[4]; dead/total", "value": "0/5"}]}
{"molecule": "H4SiW12O40 [Formula 3]", "values": [{"measurement": "toxicity to human bone marrow cells (order of toxicity, FIG. 6)", "setting": "[3]", "value": "BT and NH4ST<AZT and ST<HPA-23"}]}
{"molecule": "H5BW12O40 [Formula 4]", "values": [{"measurement": "toxicity to human bone marrow cells (order of toxicity, FIG. 6)", "setting": "[3]", "value": "NH4BT (least toxic)<BT and NH4ST<AZT and ST"}]}
